Literature values as cited in patent US6348490B1, “Dosage forms containing thioctic acid or solid salts of thioctic acid with improved release and bioavailability” (Asta Medica Aktiengesellschaft, priority 1994, dated 2002).

Experiments:
[1] = factor versus racemate
[2] = factor versus racemate; remark: listed apart in the source

Compound | anti-nociceptive (analgesic) action, factor stronger than that of the racemate [1] | anti-inflammatory action, factor stronger than that of the racemate [2]
O=C(O)CCCC[C@H]1CCSS1 (single isomer, unassigned) [S-enantiomer, S-thioctic acid] | 6 | 
O=C(O)CCCC[C@@H]1CCSS1 [R-Thioctic acid, R-thioctic acid] |  | 10
